{"source": "patent US20120165304A1", "about": "“6,7,8,9-Tetrahydro-5H-1,4,7,10a-tetraaza-cyclohept[f]indene derivatives, pharmaceutical compositions containing these compounds, their use and processes for preparing them” (BOEHRINGER INGELHEIM INTERNATIONAL GMBH, priority 2008, published 2012)"}
{"molecular_target": "human 5-HT2C receptor (Homo sapiens, UniProt P28335, I156V/I160V/N158S)", "sequence (P28335 33-458 I156V/N158S/I160V limits assumed)": "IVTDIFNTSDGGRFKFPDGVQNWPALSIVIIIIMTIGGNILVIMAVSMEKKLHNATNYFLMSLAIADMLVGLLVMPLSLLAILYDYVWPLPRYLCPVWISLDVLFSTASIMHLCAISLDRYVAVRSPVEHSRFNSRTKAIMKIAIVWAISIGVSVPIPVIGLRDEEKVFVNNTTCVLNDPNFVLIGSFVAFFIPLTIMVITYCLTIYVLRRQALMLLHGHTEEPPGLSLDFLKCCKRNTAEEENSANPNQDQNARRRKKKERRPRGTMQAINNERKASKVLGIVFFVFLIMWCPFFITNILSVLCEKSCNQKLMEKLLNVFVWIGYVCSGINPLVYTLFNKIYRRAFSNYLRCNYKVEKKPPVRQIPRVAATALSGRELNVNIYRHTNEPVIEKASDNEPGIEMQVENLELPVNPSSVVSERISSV", "test": "cell-based", "units": {"EC50": "nM"}}
{"compound": "c1ccc(C2CCN2c2c3c(nc4ccnn24)CCNCC3)cc1", "note": "(centres unmarked) [Example 21, 10-(2-Phenyl-azetidin-1-yl)-6,7,8,9-tetrahydro-5H-1,4,7,10a-tetraaza-cyclohepta[f]indene]", "EC50": 5200}
{"compound": "CCCCn1c(C2CN(c3c4c(nc5ccnn35)CCNCC4)C2)nc2ccccc21", "note": "[Example 34.26]", "EC50": 1150}
{"compound": "CN(Cc1cccs1)C(=O)C1CN(c2c3c(nc4ccnn24)CCNCC3)C1", "note": "[Example 31.43]", "EC50": 35}
{"compound": "O=C(NCC1CC1)C1CN(c2c3c(nc4ccnn24)CCNCC3)C1", "note": "[Example 37.75]", "EC50": 137}
{"compound": "CN(Cc1ccc(Cl)c(Cl)c1)C(=O)C1CN(c2c3c(nc4ccnn24)CCNCC3)C1", "note": "[Example 31.81]", "EC50": 33}
{"compound": "O=C(C1CN(c2c3c(nc4ccnn24)CCNCC3)C1)N1CCCCC(F)(F)C1", "note": "[Example 41, (3,3-Difluoro-perhydro-azepin-1-yl)-[1-(6,7,8,9-tetrahydro-5H-1,4,7,10a-tetraaza-cyclohept[f]inden-10-yl)-azetidin-3-yl]-methanone]", "EC50": 7}
{"compound": "O=C(C1CN(c2c3c(nc4ccnn24)CCNCC3)C1)N1CCC(c2cccc(Cl)c2)CC1", "note": "[Example 31.111]", "EC50": 56}
{"compound": "CC(C)(C)N1CCC2(CCN(c3c4c(nc5ccnn35)CCNCC4)CC2)C1=O", "note": "[Example 1.65]", "EC50": 4900}
{"compound": "c1ccc(OC2CN(c3c4c(nc5ccnn35)CCNCC4)C2)cc1", "note": "[Example 1.3]", "EC50": 18}
{"compound": "CN(CCc1ccc2ccccc2c1)C(=O)C1CN(c2c3c(nc4ccnn24)CCNCC3)C1", "note": "[Example 31.71]", "EC50": 366}
{"compound": "CN(C(=O)C1CN(c2c3c(nc4ccnn24)CCNCC3)C1)C1CCCC1", "note": "[Example 31.12]", "EC50": 820}
{"compound": "Fc1cccc(F)c1OC1CN(c2c3c(nc4ccnn24)CCNCC3)C1", "note": "[Example 35.41]", "EC50": 9}
{"compound": "c1ccc(CC2CN(c3c4c(nc5ccnn35)CCNCC4)C2)cc1", "note": "[Example 1.15]", "EC50": 10}
{"compound": "CN(Cc1cccc(Br)c1)C(=O)C1CN(c2c3c(nc4ccnn24)CCNCC3)C1", "note": "[Example 31.79]", "EC50": 20}
{"compound": "CN(Cc1ccc(-c2ccccc2)cc1)C(=O)C1CN(c2c3c(nc4ccnn24)CCNCC3)C1", "note": "[Example 31.82]", "EC50": 154}
{"compound": "O=C(C1CN(c2c3c(nc4ccnn24)CCNCC3)C1)N1CC=C(c2ccccc2)CC1", "note": "[Example 31.181]", "EC50": 84}
{"compound": "COC[C@@H]1CCCN1c1c2c(nc3ccnn13)CCNCC2", "note": "[Example 1.11]", "EC50": 504}
{"compound": "O=C(C1CN(c2c3c(nc4ccnn24)CCNCC3)C1)N1CCCC(C2CCCCC2)C1", "note": "(centres unmarked) [Example 31.70]", "EC50": 175}
{"compound": "COc1cccc(OCC2CN(c3c4c(nc5ccnn35)CCNCC4)C2)c1", "note": "[Example 15.20]", "EC50": 26}
{"compound": "O=C(NCC1CCOC1)C1CN(c2c3c(nc4ccnn24)CCNCC3)C1", "note": "(centres unmarked) [Example 37.61]", "EC50": 64}
{"compound": "CC1CC(C)CC(N(C)C(=O)C2CN(c3c4c(nc5ccnn35)CCNCC4)C2)C1", "note": "(centres unmarked) [Example 31.216]", "EC50": 847}
{"compound": "Cc1cnn2c(N3CCCCC3)c3c(nc12)CCNCC3", "note": "[Example 27.1]", "EC50": 37}
{"compound": "O=C(C1CN(c2c3c(nc4ccnn24)CCNCC3)C1)N1CCC(O)(c2cc(F)cc(F)c2)CC1", "note": "[Example 31.195]", "EC50": 7}
{"compound": "C#CC(C)(C)NC(=O)C1CN(c2c3c(nc4ccnn24)CCNCC3)C1", "note": "[Example 37.91]", "EC50": 301}
{"compound": "O=C(C1CN(c2c3c(nc4ccnn24)CCNCC3)C1)N1CCCC(F)(F)CC1", "note": "[Example 40, (4,4-Difluoro-perhydro-azepin-1-yl)-[1-(6,7,8,9-tetrahydro-5H-1,4,7,10a-tetraaza-cyclohept[f]inden-10-yl)-azetidin-3-yl]-methanone]", "EC50": 6}
{"compound": "Cn1c(C2CN(c3c4c(nc5ccnn35)CCNCC4)C2)nc2ccccc21", "note": "[Example 34.1]", "EC50": 53}
{"compound": "COc1cccc(OC2CN(c3c4c(nc5ccnn35)CCNCC4)C2)c1Cl", "note": "[Example 35.33]", "EC50": 90}
{"compound": "COc1ccc(CCN(C)C(=O)C2CN(c3c4c(nc5ccnn35)CCNCC4)C2)cc1", "note": "[Example 31.27]", "EC50": 274}
{"compound": "O=C(C1CN(c2c3c(nc4c(Br)cnn24)CCNCC3)C1)N1CCC2(CCCCC2)C1", "note": "[Example 31.134]", "EC50": 117}
{"compound": "CN(Cc1cccc2ccccc12)C(=O)C1CN(c2c3c(nc4ccnn24)CCNCC3)C1", "note": "[Example 31.76]", "EC50": 81}
{"compound": "Cc1ccc(F)c(OCC2CN(c3c4c(nc5ccnn35)CCNCC4)C2)c1F", "note": "[Example 15.24]", "EC50": 54}
{"compound": "Cc1ncccc1OC1CN(c2c3c(nc4ccnn24)CCNCC3)C1", "note": "[Example 35.24]", "EC50": 120}
{"compound": "c1cc(OC2CN(c3c4c(nc5ccnn35)CCNCC4)C2)c2ccncc2c1", "note": "[Example 35.16]", "EC50": 92}
{"compound": "CC(C)CN1CCN(C(=O)C2CN(c3c4c(nc5ccnn35)CCNCC4)C2)CC1", "note": "[Example 37.15]", "EC50": 3}
{"compound": "O=C(C1CN(c2c3c(nc4ccnn24)CCNCC3)C1)N1CCC(c2ccc(F)cc2)CC1", "note": "[Example 31.110]", "EC50": 30}
